The values that follow come from US10052331B2, “3-(3H-imidazo[4,5-C]pyridin-2-yl)-1H-pyrazolo[3,4-C]pyridine and therapeutic uses thereof” (Samumed, LLC, priority 2014, dated 2018).

Some results are limits rather than exact numbers.

The subject of assay [1] is primary human fibroblasts derived from IPF patients (LL29 cells). Kind of assay: Inhibition of fibrotic process: αSMA staining in TGF-β1-treated primary human fibroblasts from IPF patients (LL29 cells). In kind it is cell-based. The conditions noted are these: Fibroblast, 96 h, LL29 cells treated with TGF-β1 (20 ng/mL), 4 days, 11-point dose-response from 10 μM to 1.87 nM, read-out: Inhibition of fibrosis EC50. The source says: The above synthesized compounds were screened using primary human fibroblasts (derived from IPF patients) treated with TGF-β1 to determine their ability to inhibit the fibrotic process.
Primary human fibroblasts derived from IPF patients (LL29 cells) [^1Xiaoqiu Liu, et. al., “Fibrotic Lung Fibroblasts Show Blunted Inhibition by cAMP Due to Deficient cAMP Response Element-Binding Protein Phosphorylation”, Journal of Pharmacology and Experimental Therapeutics (2005), 315(2), 678-687; ^2Watts, K. L., et. al., “RhoA signaling modulates cyclin D1 expression in human lung fibroblasts; implications for idiopathic pulmonary fibrosis”, Respiratory Research (2006), 7(1), 88] were obtained from American Type Culture Collection (ATCC) and expanded in F12 medium supplemented with 15% Fetal Bovine Serum and Penicillin/Streptomycin.
Each compound was dissolved in DMSO as a 10 mM stock and used to prepare compound source plates. Serial dilution (1:2, 11-point dose-response curves from 10 μM to 1.87 nM) and compound transfer was performed using the ECHO 550 (Labcyte, Sunnyvale, Calif.) into 384-well clear bottom assay plates (Greiner Bio-One) with appropriate DMSO backfill for a final DMSO concentration of 0.1%. LL29 cells were plated at 1,500 cells/well in 80 μl/well F12 medium supplemented with 1% Fetal Bovine Serum. One hour after addition of the cells, TGF-β1 (Peprotech; 20 ng/mL) was added to the plates to induce fibrosis (ref. 1 and 2 above). Wells treated with TGF-β1 and containing DMSO were used as controls. Cells were incubated at 37° C. and 5% CO2 for 4 days. Following incubation for 4 days, SYTOX green nucleic acid stain (Life Technologies [Thermo Fisher Scientific]) was added to the wells at a final concentration of 1 uM and incubated at room temperature for 30 min. Cells were then fixed using 4% formaldehyde (Electron Microscopy Sciences), washed 3 times with PBS followed by blocking and permeabilization using 3% Bovine Serum Albumin (BSA; Sigma) and 0.3% Triton X-100 (Sigma) in PBS. Cells were then stained with antibody specific to α-smooth muscle actin (αSMA; Abcam) (ref. 1 and 2 above) in 3% Bovine Serum Albumin (BSA; Sigma) and 0.3% Triton X-100 (Sigma) in PBS, and incubated overnight at 4° C. Cells were then washed 3 times with PBS, followed by incubation with Alexa Flor-647 conjugated secondary antibody (Life Technologies [Thermo Fisher Scientific]) and DAPI at room temperature for 1 hour. Cells were then washed 3 times with PBS and plates were sealed for imaging. αSMA staining was imaged by excitation at 630 nm and emission at 665 nm and quantified using the Compartmental Analysis program on the CellInsight CX5 (Thermo Scientific). Dead or apoptotic cells were excluded from analysis based on positive SYTOX green staining. % of total cells positive for αSMA were counted in each well and normalized to the average of 11 wells treated with TGF-β1 on the same plate using Dotmatics' Studies Software. The normalized averages (fold change over untreated) of 3 replicate wells for each compound concentration were used to create dose-responses curves and EC50 values were calculated using non-linear regression curve fit in the Dotmatics' Studies Software. The EC50 values are reported.

For assay [2], the system named is Wnt activity (Wnt-responsive Sp5 promoter-luciferase reporter in SW480 cells). The experiment in a line: Wnt activity screening assay: Sp5-Luc reporter gene in SW480 colon carcinoma cells. It counts as cell-based. The conditions noted are these: Homo sapiens. The source says:
The screening assay for Wnt activity is described as follows. Reporter cell lines can be generated by stably transducing cancer cell lines (e.g., colon cancer) or primary cells (e.g., IEC-6 intestinal cells) with a lentiviral construct that includes a Wnt-responsive promoter driving expression of the firefly luciferase gene.
SW480 colon carcinoma cells were transduced with a lentiviral vector expressing luciferase with a human Sp5 promoter consisting of a sequence of eight TCF/LEF binding sites. SW480 cells stably expressing the Sp5-Luc reporter gene and a hygromycin resistance gene were selected by treatment with 150 μg/ml of hygromycin for 7 days. These stably transduced SW480 cells were expanded in cell culture and used for all further screening activities. For Sp5-Luc reporter gene assays, the cells were plated at 10,000 cells/well in 96-well plates with growth medium containing 10% fetal calf serum and incubated overnight at 37° C. and 5% CO2. Each compound was dissolved in DMSO as a 10 mM stock in standard j-vials and used to prepare compound source plates in dose-response format with 3-fold serial dilutions and a 10 mM top concentration. Compound transfer from serially diluted source plates to assay plates containing the cells was accomplished using a pintool (Multimek 96, Beckman equipped with V&P Scientific FP1S50H pins) based liquid handling protocol. This protocol used a slotted pin to transfer 50 nl of compound from a source plate well to an assay plate well containing 50 μl of cells in growth medium. […] Control wells received 50 nl of DMSO treatment for normalization and calculating IC50 values. The treated cells were incubated at 37° C. and 5% CO2 for an additional forty-two hours. Following incubation, the growth medium was removed and 50 μl of BrightGlo luminescence reagent (Promega) was added to each well of the 96-well assay plates. The plates were placed on an orbital shaker for 5 min and then luminescence was quantified on the Victor3 (Perkin Elmer) plate reader. Readings were normalized to DMSO only treated cells, and normalized activities were utilized for IC50 calculations using the dose-response log (inhibitor) vs. response-variable slope (four parameters) nonlinear regression feature available in GraphPad Prism 5.0 or 6.0.
(In a reporter assay the amount or activity of a reporter protein is the signal.)

Turning to `CCNCc1cncc(-c2cc3c(-c4nc5c(-c6ccoc6)cncc5[nH]4)n[nH]c3cn2)c1` [Compound 266, N-((5-(3-(7-(Furan-3-yl)-3H-imidazo[4,5-c]pyridin-2-yl)-1H-pyrazolo[3,4-c]pyridin-5-yl)pyridin-3-yl)methyl)ethanamine], the concentration giving a half-maximal response (EC50) in assay [1] was at least 9990 nM. Moreover, in assay [2], the IC50 was above 10000 nM.

As to `CCCCC(=O)Nc1cncc(-c2cc3c(-c4nc5c(-c6cccc(F)c6)cncc5[nH]4)n[nH]c3cn2)c1` [Compound 18, N-(5-(3-(7-(3-Fluorophenyl)-3H-imidazo[4,5-c]pyridin-2-yl)-1H-pyrazolo[3,4-c]pyridin-5-yl)pyridin-3-yl)pentanamide], the concentration for a half-maximal effect (EC50) in assay [1] worked out at 143 nM. In assay [2], the 50% inhibitory concentration (IC50) was determined as 29.4 nM.

On to `CC(C)Nc1cncc(-c2cc3c(-c4nc5c(-c6ccoc6)cncc5[nH]4)n[nH]c3cn2)c1` [Compound 272, 5-(3-(7-(Furan-3-yl)-3H-imidazo[4,5-c]pyridin-2-yl)-1H-pyrazolo[3,4-c]pyridin-5-yl)-N-isopropylpyridin-3-amine], for which, in assay [1], the concentration for a half-maximal effect (EC50) is at most 9 nM. In assay [2], this compound gave an IC50 of 37.6 nM.

For `COc1cc(F)cc(-c2cncc3[nH]c(-c4n[nH]c5cnc(-c6cncc(NC(=O)CC(C)C)c6)cc45)nc23)c1` [Compound 1324, N-(5-(3-(7-(3-Fluoro-5-methoxyphenyl)-3H-imidazo[4,5-c]pyridin-2-yl)-1H-pyrazolo[3,4-c]pyridin-5-yl)pyridin-3-yl)-3-methylbutanamide], the concentration for a half-maximal effect (EC50) in assay [1] was at most 9 nM. The compound also had an IC50 in assay [2] of 547 nM.

Take `Cc1ccncc1-c1cc2c(-c3nc4c(-c5ccncc5)cncc4[nH]3)n[nH]c2cn1` [Compound 109, 5-(4-Methylpyridin-3-yl)-3-(7-(pyridin-4-yl)-3H-imidazo[4,5-c]pyridin-2-yl)-1H-pyrazolo[3,4-c]pyridine]: the concentration giving a half-maximal response (EC50) in assay [1] is at least 9990 nM. The compound also registered an IC50 in assay [2] above 10000 nM.

As to `CN(C)CCNc1cc(F)cc(-c2cncc3[nH]c(-c4n[nH]c5cnc(-c6cncc(N(C)C)c6)cc45)nc23)c1` [Compound 423], the EC50 in assay [1] worked out at 2030 nM. The compound further showed an IC50 in assay [2] of 482 nM.

`CN1CCN(c2cncc3[nH]c(-c4n[nH]c5cnc(-c6cncc(N)c6)cc45)nc23)CC1` [Compound 211, 5-(3-(7-(4-Methylpiperazin-1-yl)-3H-imidazo[4,5-c]pyridin-2-yl)-1H-pyrazolo[3,4-c]pyridin-5-yl)pyridin-3-amine]: the EC50 in assay [1] was at most 9 nM. In assay [2], this compound returned an IC50 above 10000 nM.

Turning to `Fc1cccc(-c2cncc3[nH]c(-c4n[nH]c5cnc(C6=CCNCC6)cc45)nc23)c1` [Compound 886, 3-(7-(3-Fluorophenyl)-3H-imidazo[4,5-c]pyridin-2-yl)-5-(1,2,3,6-tetrahydropyridin-4-yl)-1H-pyrazolo[3,4-c]pyridine], in assay [1], the EC50 is 72 nM. Inhibition in assay [2] was half-maximal at 1940 nM (IC50).

On to `CC(C)(C)C(=O)Nc1cncc(-c2cc3c(-c4nc5c(-c6cccc(F)c6)cncc5[nH]4)n[nH]c3cn2)c1` [Compound 8, N-(5-(3-(7-(3-Fluorophenyl)-3H-imidazo[4,5-c]pyridin-2-yl)-1H-pyrazolo[3,4-c]pyridin-5-yl)pyridin-3-yl)pivalamide], for which the EC50 in assay [1] is 47 nM. Moreover, the midpoint of inhibition in assay [2], the IC50, lay at 41.1 nM.

For the compound `O=C(CC1CCNCC1)Nc1cncc(-c2cc3c(-c4nc5c(-c6cccc(F)c6)cncc5[nH]4)n[nH]c3cn2)c1` [Compound 893, N-(5-(3-(7-(3-Fluorophenyl)-3H-imidazo[4,5-c]pyridin-2-yl)-1H-pyrazolo[3,4-c]pyridin-5-yl)pyridin-3-yl)-2-(piperidin-4-yl)acetamide], the EC50 in assay [1] was at least 9990 nM. Moreover, the 50% inhibitory concentration (IC50) in assay [2] was above 10000 nM.

Turning to `c1cncc(-c2cc3c(-c4nc5c(-c6cccnc6)cncc5[nH]4)n[nH]c3cn2)c1` [Compound 82, 5-(Pyridin-3-yl)-3-(7-(pyridin-3-yl)-3H-imidazo[4,5-c]pyridin-2-yl)-1H-pyrazolo[3,4-c]pyridine], the half-maximal effective concentration (EC50) in assay [1] is at least 9990 nM. This compound returned a concentration for half-maximal inhibition (IC50) in assay [2] above 10000 nM.

As for `CCC(=O)Nc1cncc(-c2cc3c(-c4nc5c(N6CCCCC6)cncc5[nH]4)n[nH]c3cn2)c1` [Compound 157, N-(5-(3-(7-(Piperidin-1-yl)-3H-imidazo[4,5-c]pyridin-2-yl)-1H-pyrazolo[3,4-c]pyridin-5-yl)pyridin-3-yl)propionamide], the EC50 in assay [1] worked out at 1560 nM. Also, the half-inhibitory concentration (IC50) in assay [2] is 866 nM.

On to `Cc1ccc(-c2cncc3[nH]c(-c4n[nH]c5cnc(-c6cncc(NC(=O)C(C)(C)C)c6)cc45)nc23)s1` [Compound 346, N-(5-(3-(7-(5-Methylthiophen-2-yl)-3H-imidazo[4,5-c]pyridin-2-yl)-1H-pyrazolo[3,4-c]pyridin-5-yl)pyridin-3-yl)pivalamide], for which, in assay [1], the half-maximal effective concentration (EC50) worked out at 30 nM. Besides, the half-maximal inhibitory concentration (IC50) in assay [2] was found to be 17 nM.

In the case of `CC(C)(C)C(=O)Nc1cncc(-c2cc3c(-c4nc5c(-c6ccccc6F)cncc5[nH]4)n[nH]c3cn2)c1` [Compound 60, N-(5-(3-(7-(2-Fluorophenyl)-3H-imidazo[4,5-c]pyridin-2-yl)-1H-pyrazolo[3,4-c]pyridin-5-yl)pyridin-3-yl)pivalamide], the concentration giving a half-maximal response (EC50) in assay [1] was at least 9990 nM. For the same compound, in assay [2], inhibition was half-maximal at 47 nM (IC50).

Take `O=C(Nc1cncc(-c2cc3c(-c4nc5c(-c6ccccn6)cncc5[nH]4)n[nH]c3cn2)c1)c1ccccc1` [Compound 141, N-(5-(3-(7-(Pyridin-2-yl)-3H-imidazo[4,5-c]pyridin-2-yl)-1H-pyrazolo[3,4-c]pyridin-5-yl)pyridin-3-yl)benzamide]: the EC50 in assay [1] was at least 9990 nM. This compound displayed a concentration for half-maximal inhibition (IC50) in assay [2] above 10000 nM.

In the case of `Fc1cccc(-c2cncc3[nH]c(-c4n[nH]c5cnc(-c6ccccn6)cc45)nc23)c1` [Compound 901, 3-(7-(3-Fluorophenyl)-3H-imidazo[4,5-c]pyridin-2-yl)-5-(pyridin-2-yl)-1H-pyrazolo[3,4-c]pyridine], the concentration giving a half-maximal response (EC50) in assay [1] was 584 nM. The IC50 in assay [2] came out at 805 nM.

As for `Cc1ccncc1-c1cc2c(-c3nc4c(-c5ccsc5)cncc4[nH]3)n[nH]c2cn1` [Compound 239, 5-(4-Methylpyridin-3-yl)-3-(7-(thiophen-3-yl)-3H-imidazo[4,5-c]pyridin-2-yl)-1H-pyrazolo[3,4-c]pyridine], in assay [1], the EC50 was at most 9 nM. In addition, in assay [2], the IC50 was 40 nM.

As to `Oc1cncc(-c2cc3c(-c4nc5c(-c6cccc(F)c6)cncc5[nH]4)n[nH]c3cn2)c1` [Compound 897, 5-(3-(7-(3-Fluorophenyl)-3H-imidazo[4,5-c]pyridin-2-yl)-1H-pyrazolo[3,4-c]pyridin-5-yl)pyridin-3-ol], the EC50 in assay [1] was 32 nM. Further, it took 59 nM to reach half-maximal inhibition in assay [2] (IC50).

Usually EC50 stands for the concentration at which the effect is half-maximal. As a reminder, the IC50 is the midpoint of a concentration-inhibition curve. Lower therefore signals greater potency.
